Molecules are shown by their SMILES.

For this experiment, the system named is A549. Put plainly: Cellular uptake of fluorescent compounds (fluorescence microscopy). The note with it: A549, post 5-hours incubation. In kind it is cell-based. On the procedure:
The intracellular localization of molecules was visualized by fluorescence microscopy. Cells were seeded on cover slips to a confluency of 40% and grown for 24 hours in a humidified chamber. Cells were treated with fluorescent compounds and incubated for 2, 5 and 24 hours. Following incubation, cells were washed with PBS, fixed in 4% paraformaldehyde and observed under epifluorescence microscope. Images were recorded in phase contrast and fluorescent channels. Cells treated with vehicle and/or ligand were considered as control and microscopically evaluated.

Turning to `NCC(N)C(=O)OCCNc1ccc2cccc3c2c1C(=O)C=C3` (stereo not shown) [Im-02], the “intracellular localization of fluorescence” value was “punctate dots in the cytoplasm or along cell margins”.
